Test system: Isolated cuticles from apple leaves (Malus domestica cv. 'Golden Delicious')
Assay: Leaf penetration (Franz cell diffusion of Imidacloprid through isolated cuticles)
Format: in vitro ADME
Details: active alone without penetrant
Method: The following test method was used to assess leaf penetration properties of the synthesised ethoxylated polyol alkoxylates P1 to P18.
Franz cells were set up containing: • Receptor solution: 10 mM sodium phosphate buffer pH 6.0 containing 0.1 mM sodium azide • Donor solution: unformulated pesticide containing 0.5 g/l of Imidacloprid (N-[1-[(6-Chloro-3-pyridyl)methyl]-4,5-dihydroimidazol-2-yl]nitramide) and 2.5 g/l of penetrant, in 5 mM lactic acid (pre-buffered with KOH), preserved with 0.5 mM sodium azide, (+/−0.25% w/v), i.e. 2.5 g/l donor).
The Franz cell experiments were used for diffusion experiments. Isolated cuticles from apple leaves (Malus domestica cv. ‘Golden Delicious’) were prepared based on the method detailed in US 2009/0247597. The donor compartment was removed to aid deposit formation. Experiments were performed at a controlled temperature of 20° C., and a controlled relative humidity of 58%. A calibration was carried out (0-100% penetration) obtaining the concentration of Imidacloprid in the receiver solution removed from the Franz Cell.
HPLC-UV was used to assay imidacloprid concentration using an Agilent 1260 Quaternary LC system. Each penetrant was tested for leaf penetration properties, with a total of 18 Franz cells used for percentage penetration determination. A calibration was carried out before each set of samples was analysed. […]

O=[N+]([O-])NC1=NCCN1Cc1ccc(Cl)nc1 [Imidacloprid, N-[1-[(6-Chloro-3-pyridyl)methyl]-4,5-dihydroimidazol-2-yl]nitramide]
% penetration after 72 hours: 1.7%

Source: US9681658B2, “Penetrants for agrochemical formulations” (CRODA INTERNATIONAL PLC, priority 2012, dated 2017)
